Laboratory results as given in US10174001B2, “Crystals of 5-cyclopropyl-2-((1-(3-fluorobenzyl)-1H-indol-5-yl)amino)nicotinic acid” (FUJIFILM Toyama Chemical Co., Ltd., priority 2015, dated 2019).
In brackets after ≈: the same amount, converted by molar mass.

Assays:
[1] = Test Example 1: Solubility in various organic solvents; format: physicochemical; conditions: for Solubility / solubility at 24 h: stirred for 24 hours; for solubility at 24 h: organic solvent or mixture, thermodynamic from solid
Protocol: The α-form crystal (about 100 mg) or the β-form crystal (about 100 mg) was suspended in various organic solvents (about 1 mL) and stirred for 24 hours. Impurities were filtered off using a membrane filter and the filtrate was analyzed by HPLC to determine the solubility.

[2] = Test Example 2: Physical Stability (mixed α/β crystals stirred in solvent, crystal form by infrared absorption spectrum); format: physicochemical
Protocol: The α-form crystal (1 part by weight) and the β-form crystal (1 part by weight) were mixed, suspended in a solvent (ethyl acetate/ethanol=5/1.5 parts by weight) and stirred at 26, 70 or 100° C.
Sampling was carried out over time and crystal forms were measured by the infrared absorption spectrum.

[3] = Test Example 3: Hygroscopicity (rate of weight change and crystal form); format: physicochemical; conditions: for Stability (hygroscopicity test): 25° C., relative humidity of 75 or 97%
Protocol: The α-form crystal and the β-form crystal were preserved under the conditions of 25° C. and a relative humidity of 75 or 97%.
Sampling was carried out over time and the weights of crystals were measured to determine rates of weight changes. Additionally, crystal forms were measured by the infrared absorption spectrum.
Rate of weight change (%)=((B−A)/A)×100
A: Crystal weight before the test started
B: Crystal weight after the test started

[4] = Test Example 4: Stability (HPLC purity and crystal form on storage); format: physicochemical; conditions: for Purity (%): HPLC
Protocol: The α-form crystal and the β-form crystal were preserved under the conditions of 40 or 60° C. and a relative humidity of 75%.
Twelve weeks after the test started, the purity was measured by HPLC. Additionally, crystal forms were measured by the infrared absorption spectrum.
HPLC Measurement conditions
Measurement wavelength: 270 nm
Column: Ascentis Express C18, inner diameter 3.0 mm×length 150 mm
Column temperature: 40° C.
Mobile phase: 0.1% phosphoric acid/(acetonitrile/water=60/40) solution

keratinocyte = conditions: cited from earlier work

**Q.** For `O=C(O)c1cc(C2CC2)cnc1Nc1ccc2c(ccn2Cc2cccc(F)c2)c1` [β-Form crystal, 5-cyclopropyl-2-((1-(3-fluorobenzyl)-1H-indol-5-yl)amino)nicotinic acid], which Solubility ([1]; 2-Propanol) is on record?
**A.** 3.0 mg/mL (≈ 7.47 mM)

**Q.** What about the Solubility ([1]; Acetone) of the same compound?
**A.** 48.9 mg/mL (≈ 122 mM)

**Q.** What about the Solubility ([1]; Acetonitrile) of the same compound?
**A.** 2.7 mg/mL (≈ 6.73 mM)

**Q.** And the Solubility ([1]; Ethanol)?
**A.** 6.8 mg/mL (≈ 16.9 mM)

**Q.** And the Solubility ([1]; Ethyl acetate)?
**A.** 16.8 mg/mL (≈ 41.8 mM)

**Q.** And the Solubility ([1]; Isopropyl acetate)?
**A.** 9.8 mg/mL (≈ 24.4 mM)

**Q.** And the Solubility ([1]; Methyl ethyl ketone)?
**A.** 55.3 mg/mL (≈ 138 mM)

**Q.** And the Solubility ([1]; Methyl tert-butyl ether)?
**A.** 8.1 mg/mL (≈ 20.2 mM)

**Q.** And the “Relative stability of crystal forms” value ([1]; concluded from solubility)?
**A.** more stable than the α-form crystal

**Q.** What about the “Solubility compared between crystal forms” value ([1]; various organic solvents) of the same compound?
**A.** lower than the solubility of the α-form crystal

**Q.** And the “Relative stability of crystal forms” value ([2]; concluded from crystal transition in suspension)?
**A.** more stable than the α-form crystal

**Q.** And the Crystal form ([3]; 25° C. 75% RH, 0 hr)?
**A.** β

**Q.** And the “Rate of weight change (%)” value ([3]; 25° C. 75% RH, 0 hr)?
**A.** 0.00%

**Q.** And the Crystal form ([3]; 25° C. 75% RH, 2 weeks)?
**A.** β

**Q.** What about the “Rate of weight change (%)” value ([3]; 25° C. 75% RH, 2 weeks) of the same compound?
**A.** 0.07%

**Q.** What about the Crystal form ([3]; 25° C. 75% RH, 4 weeks) of the same compound?
**A.** β

**Q.** What about the “Rate of weight change (%)” value ([3]; 25° C. 75% RH, 4 weeks) of the same compound?
**A.** 0.07%

**Q.** What about the Crystal form ([3]; 25° C. 75% RH, 8 weeks) of the same compound?
**A.** β

**Q.** And the “Rate of weight change (%)” value ([3]; 25° C. 75% RH, 8 weeks)?
**A.** 0.20%

**Q.** What about the Crystal form ([3]; 25° C. 75% RH, 12 weeks) of the same compound?
**A.** β

**Q.** What about the “Rate of weight change (%)” value ([3]; 25° C. 75% RH, 12 weeks) of the same compound?
**A.** 0.18%

**Q.** What about the Crystal form ([3]; 25° C. 97% RH, 0 hr) of the same compound?
**A.** β

**Q.** And the “Rate of weight change (%)” value ([3]; 25° C. 97% RH, 0 hr)?
**A.** 0.00%

**Q.** And the Crystal form ([3]; 25° C. 97% RH, 2 weeks)?
**A.** β

**Q.** What about the “Rate of weight change (%)” value ([3]; 25° C. 97% RH, 2 weeks) of the same compound?
**A.** 0.10%

**Q.** And the Crystal form ([3]; 25° C. 97% RH, 4 weeks)?
**A.** β

**Q.** And the “Rate of weight change (%)” value ([3]; 25° C. 97% RH, 4 weeks)?
**A.** 0.11%

**Q.** What about the Crystal form ([3]; 25° C. 97% RH, 8 weeks) of the same compound?
**A.** β

**Q.** And the “Rate of weight change (%)” value ([3]; 25° C. 97% RH, 8 weeks)?
**A.** 0.26%

**Q.** And the Crystal form ([3]; 25° C. 97% RH, 12 weeks)?
**A.** β

**Q.** What about the “Rate of weight change (%)” value ([3]; 25° C. 97% RH, 12 weeks) of the same compound?
**A.** 0.25%

**Q.** What about the “Stability (hygroscopicity test)” value [3] of the same compound?
**A.** stable

**Q.** And the Crystal form ([4]; 40° C. 75% RH, 0 hr)?
**A.** β

**Q.** What about the “Purity (%)” value ([4]; 40° C. 75% RH, 0 hr) of the same compound?
**A.** 99.6%

**Q.** And the Crystal form ([4]; 40° C. 75% RH, 12 weeks)?
**A.** β

**Q.** What about the “Purity (%)” value ([4]; 40° C. 75% RH, 12 weeks) of the same compound?
**A.** 99.7%

**Q.** And the Crystal form ([4]; 60° C. 75% RH, 0 hr)?
**A.** β

**Q.** What about the “Purity (%)” value ([4]; 60° C. 75% RH, 0 hr) of the same compound?
**A.** 99.6%

**Q.** And the Crystal form ([4]; 60° C. 75% RH, 12 weeks)?
**A.** β

**Q.** What about the “Purity (%)” value ([4]; 60° C. 75% RH, 12 weeks) of the same compound?
**A.** 99.7%

**Q.** For `O=C(O)c1cc(C2CC2)cnc1Nc1ccc2c(ccn2Cc2cccc(F)c2)c1` [α-Form crystal, 5-cyclopropyl-2-((1-(3-fluorobenzyl)-1H-indol-5-yl)amino)nicotinic acid], which solubility at 24 h ([1]; 2-propanol) is on record?
**A.** 3.5 mg/mL (≈ 8.72 mM)

**Q.** And the solubility at 24 h ([1]; acetone)?
**A.** 55 mg/mL (≈ 137 mM)

**Q.** And the solubility at 24 h ([1]; acetonitrile)?
**A.** 3.1 mg/mL (≈ 7.72 mM)

**Q.** What about the solubility at 24 h ([1]; ethanol) of the same compound?
**A.** 8.8 mg/mL (≈ 21.9 mM)

**Q.** And the solubility at 24 h ([1]; ethyl acetate)?
**A.** 19.7 mg/mL (≈ 49.1 mM)

**Q.** What about the solubility at 24 h ([1]; isopropyl acetate) of the same compound?
**A.** 11.5 mg/mL (≈ 28.6 mM)

**Q.** What about the solubility at 24 h ([1]; methyl ethyl ketone) of the same compound?
**A.** 63.1 mg/mL (≈ 157 mM)

**Q.** And the solubility at 24 h ([1]; methyl tert-butyl ether)?
**A.** 10.1 mg/mL (≈ 25.2 mM)

**Q.** And the Crystal transition ([2]; mixed crystals stirred at 26, 70 or 100° C.)?
**A.** transitioned to the β-form crystal

**Q.** What about the Crystal form ([3]; 25° C. 75% RH, 0 hr) of the same compound?
**A.** α

**Q.** What about the “Rate of weight change (%)” value ([3]; 25° C. 75% RH, 0 hr) of the same compound?
**A.** 0.00%

**Q.** And the Crystal form ([3]; 25° C. 75% RH, 2 weeks)?
**A.** α

**Q.** And the “Rate of weight change (%)” value ([3]; 25° C. 75% RH, 2 weeks)?
**A.** 0.08%

**Q.** And the Crystal form ([3]; 25° C. 75% RH, 4 weeks)?
**A.** α

**Q.** What about the “Rate of weight change (%)” value ([3]; 25° C. 75% RH, 4 weeks) of the same compound?
**A.** 0.08%

**Q.** What about the Crystal form ([3]; 25° C. 75% RH, 8 weeks) of the same compound?
**A.** α

**Q.** And the “Rate of weight change (%)” value ([3]; 25° C. 75% RH, 8 weeks)?
**A.** 0.24%

**Q.** And the Crystal form ([3]; 25° C. 75% RH, 12 weeks)?
**A.** α

**Q.** What about the “Rate of weight change (%)” value ([3]; 25° C. 75% RH, 12 weeks) of the same compound?
**A.** 0.22%

**Q.** And the Crystal form ([3]; 25° C. 97% RH, 0 hr)?
**A.** α

**Q.** And the “Rate of weight change (%)” value ([3]; 25° C. 97% RH, 0 hr)?
**A.** 0.00%

**Q.** What about the Crystal form ([3]; 25° C. 97% RH, 2 weeks) of the same compound?
**A.** α

**Q.** What about the “Rate of weight change (%)” value ([3]; 25° C. 97% RH, 2 weeks) of the same compound?
**A.** 0.13%

**Q.** What about the Crystal form ([3]; 25° C. 97% RH, 4 weeks) of the same compound?
**A.** α

**Q.** What about the “Rate of weight change (%)” value ([3]; 25° C. 97% RH, 4 weeks) of the same compound?
**A.** 0.17%

**Q.** What about the Crystal form ([3]; 25° C. 97% RH, 8 weeks) of the same compound?
**A.** α

**Q.** What about the “Rate of weight change (%)” value ([3]; 25° C. 97% RH, 8 weeks) of the same compound?
**A.** 0.38%

**Q.** And the Crystal form ([3]; 25° C. 97% RH, 12 weeks)?
**A.** α

**Q.** What about the “Rate of weight change (%)” value ([3]; 25° C. 97% RH, 12 weeks) of the same compound?
**A.** 0.32%

**Q.** And the “Stability (hygroscopicity test)” value [3]?
**A.** stable

**Q.** And the Crystal form ([4]; 40° C. 75% RH, 0 hr)?
**A.** α

**Q.** What about the “Purity (%)” value ([4]; 40° C. 75% RH, 0 hr) of the same compound?
**A.** 99.4%

**Q.** And the Crystal form ([4]; 40° C. 75% RH, 12 weeks)?
**A.** α

**Q.** And the “Purity (%)” value ([4]; 40° C. 75% RH, 12 weeks)?
**A.** 99.5%

**Q.** What about the Crystal form ([4]; 60° C. 75% RH, 0 hr) of the same compound?
**A.** α

**Q.** What about the “Purity (%)” value ([4]; 60° C. 75% RH, 0 hr) of the same compound?
**A.** 99.4%

**Q.** And the Crystal form ([4]; 60° C. 75% RH, 12 weeks)?
**A.** α

**Q.** What about the “Purity (%)” value ([4]; 60° C. 75% RH, 12 weeks) of the same compound?
**A.** 99.5%

**Q.** Which “Antiproliferative activity on keratinocyte” value (keratinocyte) does the source give for `O=C(O)c1cc(C2CC2)cnc1Nc1ccc2c(ccn2Cc2cccc(F)c2)c1` [Compound A, 5-Cyclopropyl-2-((1-(3-fluorobenzyl)-1H-indol-5-yl)amino)nicotinic acid] here?
**A.** excellent antiproliferative activity on keratinocyte
